Assay results taken from PubChem BioAssay AID1918999 (Molecular Pharmacology Branch, DTP, NCI, 2023).

System: 556581-035-R-J1-PDC complex spheroid growth
Test: Anticancer human tumor 556581-035-R-J1-PDC patient-derived ovarian carcinoma cell line growth inhibition [AhR]
Settings: for IC50: curve of first compound; for viability, T/C: stronger effect = lower value
Procedure, shortened: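 Complex tumor spheroids co-cultured with HUVEC and human MSC stroma; AhR antagonists tested in combination with standard-of-care and investigational agents. Top concentration at or near clinical Cmax (else 10 microM), half-log dilutions; growth expressed as percent test/control.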

[1] = second compound 0.1 µM, first compound 0.0316 µM
[2] = second compound 0.1 µM, first compound 0.1 µM
[3] = second compound 0.1 µM, first compound 0.316 µM
[4] = second compound 0.1 µM, first compound 1 µM
[5] = second compound 0.316 µM, first compound 0.0316 µM
[6] = second compound 0.316 µM, first compound 0.1 µM
[7] = second compound 0.316 µM, first compound 0.316 µM
[8] = second compound 0.316 µM, first compound 1 µM
[9] = second compound 1 µM, first compound 0.0316 µM
[10] = second compound 1 µM, first compound 0.1 µM
[11] = second compound 1 µM, first compound 0.316 µM
[12] = second compound 1 µM, first compound 1 µM
[13] = second compound 3.16 µM, first compound 0.0316 µM
[14] = second compound 3.16 µM, first compound 0.1 µM
[15] = second compound 3.16 µM, first compound 0.316 µM
[16] = second compound 3.16 µM, first compound 1 µM
[17] = second compound 10 µM, first compound 0.0316 µM
[18] = second compound 10 µM, first compound 0.1 µM
[19] = second compound 10 µM, first compound 0.316 µM
[20] = second compound 10 µM, first compound 1 µM
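Throughout, for viability, T/C: compound exposure lasted 7 days; 100% = DMSO vehicle control growth.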

IC50 (second compound 0.1 µM) | IC50 (second compound 0.316 µM) | IC50 (second compound 1 µM) | IC50 (second compound 3.16 µM) | IC50 (second compound 10 µM) | SMILES | viability, T/C [1] | viability, T/C [2] | viability, T/C [3] | viability, T/C [4] | viability, T/C [5] | viability, T/C [6] | viability, T/C [7] | viability, T/C [8] | viability, T/C [9] | viability, T/C [10] | viability, T/C [11] | viability, T/C [12] | viability, T/C [13] | viability, T/C [14] | viability, T/C [15] | further results
621 nM | 518 nM | 796 nM | 760 nM | 877 nM | CC1COCCN1c1cc(-c2ccnn2C)c2ccnc(-c3ccn[nH]3)c2n1 (stereo not given) + Cc1cncc(-c2nc(NCCc3c[nH]c4ccccc34)c3ncn(C(C)C)c3n2)c1 | 89.8% | 82.2% | 62.8% | 40.5% | 93.2% | 83% | 55.6% | 41.9% | 101% | 83.8% | 57.4% | 48% | 88.6% | 75.7% | 62.4% | viability, T/C (second compound 0.1 µM, first compound 0.00316 µM): 99.4%; viability, T/C (second compound 0.1 µM, first compound 0.01 µM): 96.1%; viability, T/C (second compound 0.316 µM, first compound 0.00316 µM): 98.2%; viability, T/C (second compound 0.316 µM, first compound 0.01 µM): 104%; viability, T/C (second compound 1 µM, first compound 0.00316 µM): 100%; viability, T/C (second compound 1 µM, first compound 0.01 µM): 102%; viability, T/C (second compound 3.16 µM, first compound 0.00316 µM): 101%; viability, T/C (second compound 3.16 µM, first compound 0.01 µM): 95.1%; viability, T/C [16]: 46.2%; viability, T/C (second compound 10 µM, first compound 0.00316 µM): 77.6%; viability, T/C (second compound 10 µM, first compound 0.01 µM): 71.9%; viability, T/C [17]: 71.4%; viability, T/C [18]: 64.3%; viability, T/C [19]: 57.7%; viability, T/C [20]: 49%
> 10000 nM | > 10000 nM | > 10000 nM | > 10000 nM | > 10000 nM | CC1COCCN1c1cc(C2(S(C)(=N)=O)CC2)nc(-c2ccnc3[nH]ccc23)n1 (stereo not given) + Cc1cncc(-c2nc(NCCc3c[nH]c4ccccc34)c3ncn(C(C)C)c3n2)c1 | 103% | 104% | 92.2% | 93.3% | 99% | 97.9% | 99.4% | 95.4% | 101% | 106% | 102% | 94.7% | 111% | 103% | 92.2% | viability, T/C (second compound 0.1 µM, first compound 3.16 µM): 73.5%; viability, T/C (second compound 0.1 µM, first compound 10 µM): 67.4%; viability, T/C (second compound 0.316 µM, first compound 3.16 µM): 82.5%; viability, T/C (second compound 0.316 µM, first compound 10 µM): 68.9%; viability, T/C (second compound 1 µM, first compound 3.16 µM): 85%; viability, T/C (second compound 1 µM, first compound 10 µM): 67.3%; viability, T/C [16]: 99.2%; viability, T/C (second compound 3.16 µM, first compound 3.16 µM): 74.2%; viability, T/C (second compound 3.16 µM, first compound 10 µM): 78.2%; viability, T/C [17]: 80.4%; viability, T/C [18]: 90.1%; viability, T/C [19]: 80.7%; viability, T/C [20]: 90.9%; viability, T/C (second compound 10 µM, first compound 3.16 µM): 79.5%; viability, T/C (second compound 10 µM, first compound 10 µM): 63.8%
